Structures are written as SMILES.

The experiment concerns the target T1, human TRPM8 (Homo sapiens, UniProt Q7Z2W7).
T1 construct: expressed in transfected cells; host or cells: Chinese hamster ovary (CHO) cells, T-REx tetracycline-inducible expression system (Invitrogen), co-transfected with pcDNA3.1 jellyfish aequorin
Nature of the experiment: Luminescence readout assay for measuring intracellular calcium (aequorin), hTRPM8 antagonism. The format is cell-based. The following applies: CHO cell line expressing human TRPM8 and aequorin; activation by icilin, L-menthol or cold buffer (table does not say which). On the technique in general: A change in cytosolic calcium serves as a functional read-out for many receptors and channels.

T1 sequence (Q7Z2W7 whole entry): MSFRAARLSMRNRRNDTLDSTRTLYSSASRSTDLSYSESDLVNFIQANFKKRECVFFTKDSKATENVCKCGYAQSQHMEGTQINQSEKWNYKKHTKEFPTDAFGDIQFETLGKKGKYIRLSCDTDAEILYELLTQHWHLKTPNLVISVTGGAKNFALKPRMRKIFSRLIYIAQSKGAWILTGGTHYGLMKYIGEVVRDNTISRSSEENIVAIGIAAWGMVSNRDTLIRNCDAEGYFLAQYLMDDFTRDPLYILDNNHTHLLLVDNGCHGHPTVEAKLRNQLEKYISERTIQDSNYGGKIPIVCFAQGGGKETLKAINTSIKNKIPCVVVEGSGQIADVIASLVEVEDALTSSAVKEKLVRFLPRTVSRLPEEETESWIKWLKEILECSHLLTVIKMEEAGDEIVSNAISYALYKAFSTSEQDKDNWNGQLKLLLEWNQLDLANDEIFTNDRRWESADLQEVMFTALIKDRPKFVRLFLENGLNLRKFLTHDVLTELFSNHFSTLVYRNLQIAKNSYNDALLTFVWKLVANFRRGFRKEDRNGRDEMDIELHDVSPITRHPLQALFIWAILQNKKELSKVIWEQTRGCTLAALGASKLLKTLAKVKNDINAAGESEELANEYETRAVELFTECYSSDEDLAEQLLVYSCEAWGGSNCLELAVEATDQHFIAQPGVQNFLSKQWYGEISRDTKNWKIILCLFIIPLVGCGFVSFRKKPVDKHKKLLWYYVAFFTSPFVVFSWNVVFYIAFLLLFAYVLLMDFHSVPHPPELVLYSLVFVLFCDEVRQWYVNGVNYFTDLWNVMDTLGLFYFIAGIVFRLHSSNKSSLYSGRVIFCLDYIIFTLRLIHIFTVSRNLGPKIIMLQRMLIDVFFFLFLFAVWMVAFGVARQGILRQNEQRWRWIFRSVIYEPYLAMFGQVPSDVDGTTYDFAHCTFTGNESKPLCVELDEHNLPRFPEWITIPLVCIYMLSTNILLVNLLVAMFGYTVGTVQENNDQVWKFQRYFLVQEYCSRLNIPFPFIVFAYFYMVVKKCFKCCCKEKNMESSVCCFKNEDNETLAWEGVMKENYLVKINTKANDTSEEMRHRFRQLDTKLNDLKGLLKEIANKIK

Consider `COC(=O)c1cc(NC(=O)N[C@@H](c2ccc(C(F)(F)F)cc2)c2ncccc2C(F)(F)F)cc(C(=O)OC)c1` [Example 103, (S)-dimethyl 5-(3-((4-(trifluoro-methyl)-phenyl)(3-(trifluoro-methyl)-pyridin-2-yl)-methyl)-ureido)-isophthalate (2,2,2-trifluoro-acetate)], for which the IC50 was 527 nM. Then `CCCCOC(=O)CNC(=O)N[C@@H](c1ccc(C(F)(F)F)cc1)c1ncccc1C(F)(F)F` [Example 104, (S)-butyl 2-(3-((4-(trifluoro-methyl)-phenyl)(3-(trifluoro-methyl)-pyridin-2-yl)-methyl)-ureido)acetate (2,2,2-trifluoro-acetate)], with 604 nM; and `C=C(C)c1cccc(C(C)(C)NC(=O)N[C@@H](c2ccc(C(F)(F)F)cc2)c2ncccc2C(F)(F)F)c1` [Example 105, (S)-1-(2-(3-(prop-1-en-2-yl)phenyl)-propan-2-yl)-3-((4-(trifluoro-methyl)-phenyl)(3-(trifluoro-methyl)-pyridin-2-yl)-methyl)urea (2,2,2-trifluoro-acetate)], with 545 nM; and `Cc1cc(C)cc(NC(=O)N[C@@H](c2ccc(C(F)(F)F)cc2)c2ncccc2C(F)(F)F)c1` [Example 106, (S)-1-(3,5-dimethylphenyl)-3-((4-(trifluoro-methyl)-phenyl)(3-(trifluoro-methyl)-pyridin-2-yl)-methyl)urea (2,2,2-trifluoro-acetate)], with 494 nM. Then `C[C@H](NC(=O)N[C@@H](c1ccc(C(F)(F)F)cc1)c1ncccc1C(F)(F)F)c1ccccc1` [Example 107, 1-((S)-1-phenylethyl)-3-((S)-(4-(trifluoro-methyl)-phenyl)(3-(trifluoro-methyl)-pyridin-2-yl)-methyl)urea (2,2,2-trifluoro-acetate)], with 123 nM. Regarding `Cc1ccc(C)c(NC(=O)N[C@@H](c2ccc(C(F)(F)F)cc2)c2ncccc2C(F)(F)F)c1` [Example 108], the IC50 turned out to be 829 nM. Consider `O=C(NCc1ccccc1)N[C@@H](c1ccc(C(F)(F)F)cc1)c1ncccc1C(F)(F)F` [Example 109, (S)-1-benzyl-3-((4-(trifluoro-methyl)-phenyl)(3-(trifluoro-methyl)-pyridin-2-yl)-methyl)urea (2,2,2-trifluoro-acetate)], for which the IC50 turned out to be 110 nM. Then `COc1ccc(OC)c(CCNC(=O)N[C@@H](c2ccc(C(F)(F)F)cc2)c2ncccc2C(F)(F)F)c1` [Example 110, (S)-1-(2,5-dimethoxy-phenethyl)-3-((4-(trifluoro-methyl)-phenyl)(3-(trifluoro-methyl)-pyridin-2-yl)-methyl)urea (2,2,2-trifluoro-acetate)], with 190 nM. Then `COc1cc(CNC(=O)N[C@@H](c2ccc(C(F)(F)F)cc2)c2ncccc2C(F)(F)F)cc(OC)c1OC` [Example 111, (S)-1-((4-(trifluoro-methyl)-phenyl)(3-(trifluoro-methyl)-pyridin-2-yl)-methyl)-3-(3,4,5-trimethoxy-benzyl)urea (2,2,2-trifluoro-acetate)], with 2380 nM; and `COc1cc(NC(=O)N[C@@H](c2ccc(C(F)(F)F)cc2)c2ncccc2C(F)(F)F)cc(OC)c1OC` [Example 112, (S)-1-((4-(trifluoro-methyl)-phenyl)(3-(trifluoro-methyl)-pyridin-2-yl)-methyl)-3-(3,4,5-trimethoxy-phenyl)urea (2,2,2-trifluoro-acetate)], with 287 nM.

Consider `O=C(Nc1cccs1)N[C@@H](c1ccc(C(F)(F)F)cc1)c1ncccc1C(F)(F)F` [Example 113, (S)-1-(thiophen-2-yl)-3-((4-(trifluoro-methyl)-phenyl)(3-(trifluoro-methyl)-pyridin-2-yl)-methyl)urea (2,2,2-trifluoro-acetate)], for which the IC50 was 175 nM. Take `O=C(Nc1cccnc1)NC(c1ccc(C(F)(F)F)cc1)c1cccnc1Br` (stereo not drawn) [Example 114, 1-((2-bromopyridin-3-yl)(4-(trifluoro-methyl)-phenyl)-methyl)-3-(pyridin-3-yl)-urea (2,2,2-trifluoro-acetate)]: the IC50 stood at 886 nM.

Regarding `O=C(Nc1cccnc1)N[C@@H](c1ccc(C(F)(F)F)cc1)c1ccccc1Br` [Example 115, (S)-1-((2-bromophenyl) (4-(trifluoro-methyl)-phenyl)-methyl)-3-(pyridin-3-yl)-urea 2,2,2-trifluoro-acetate (2,2,2-trifluoro-acetate)], the half-maximal inhibitory concentration (IC50) was 154 nM.

As to `CC(C)(C)NC(=O)N[C@@H](c1ccc(C(F)(F)F)cc1)c1ccccc1Br` [Example 116, (S)-1-((2-bromophenyl) (4-(trifluoro-methyl)-phenyl)-methyl)-3-tert-butylurea], the IC50 was determined as 133 nM. Then `O=C(Nc1cccnc1)N[C@H](c1cccc(C(F)(F)F)c1)c1ccc(C(F)(F)F)c(F)c1` [Example 117, (R)-1-((3-fluoro-4-(trifluoro-methyl)-phenyl)(3-(trifluoro-methyl)-phenyl)-methyl)-3-(pyridin-3-yl)-urea (2,2,2-trifluoro-acetate)], with 1750 nM; and `COC(=O)c1ccccc1NC(=O)N[C@@H](c1ccc(C(F)(F)F)cc1)c1ncccc1F` [Example 118, (S)-methyl 2-(3-((3-fluoro-pyridin-2-yl)-(4-(trifluoro-methyl)-phenyl)-methyl)-ureido)-benzoate], with 162 nM; and `O=C(Nc1cccnc1)N[C@@H](c1ccc(C(F)(F)F)cc1)c1cnccc1C(F)(F)F` [Example 119, (S)-1-(pyridin-3-yl)-3-((4-(trifluoro-methyl)-phenyl)(4-(trifluoro-methyl)-pyridin-3-yl)-methyl)urea bis(2,2,2-trifluoro-acetate)], with 375 nM. Then `O=C(Nc1cccnc1)NC(c1ccc(C(F)(F)F)cc1)c1ccncc1Br` (stereo not drawn) [Example 120, 1-((3-bromopyridin-4-yl)(4-(trifluoro-methyl)-phenyl)-methyl)-3-(pyridin-3-yl)-urea (2,2,2-trifluoro-acetate)], with 2850 nM; and `O=C(Nc1cccnc1)N[C@@H](c1ccc(C(F)(F)F)c(F)c1)c1ccccc1C(F)(F)F` [Example 121, (S)-1-((3-fluoro-4-(trifluoro-methyl)-phenyl)(2-(trifluoro-methyl)-phenyl)-methyl)-3-(pyridin-3-yl)-urea], with 84 nM; and `FC(F)(F)c1ccc([C@H](NC(=S)Nc2cccnc2)c2ncccc2C(F)(F)F)cc1` [Example 122, (S)-1-(pyridin-3-yl)-3-((4-(trifluoro-methyl)-phenyl)(3-(trifluoro-methyl)-pyridin-2-yl)-methyl)-thiourea], with 221 nM. Then `CC(C)(C)NC(=S)N[C@@H](c1ccc(C(F)(F)F)cc1)c1ncccc1C(F)(F)F` [Example 123, (S)-1-tert-butyl-3-((4-(trifluoro-methyl)-phenyl)(3-(trifluoro-methyl)-pyridin-2-yl)-methyl)-thiourea], with 190 nM; and `O=C(Nc1cccc(I)c1)N[C@@H](c1ccc(C(F)(F)F)cc1)c1ncccc1C(F)(F)F` [Example 124, (S)-1-(3-iodophenyl)-3-((4-(trifluoro-methyl)-phenyl)(3-(trifluoro-methyl)-pyridin-2-yl)-methyl)urea (2,2,2-trifluoro-acetate)], with 708 nM; and `O=C(NCc1ccc(Br)cc1)N[C@@H](c1ccc(C(F)(F)F)cc1)c1ncccc1C(F)(F)F` [Example 125, (S)-1-(4-bromobenzyl)-3-((4-(trifluoro-methyl)-phenyl)(3-(trifluoro-methyl)-pyridin-2-yl)-methyl)urea (2,2,2-trifluoro-acetate)], with 561 nM. On to `CCOc1cccc(NC(=O)N[C@@H](c2ccc(C(F)(F)F)cc2)c2ncccc2C(F)(F)F)c1` [Example 126, (S)-1-(3-ethoxyphenyl)-3-((4-(trifluoro-methyl)-phenyl)(3-(trifluoro-methyl)-pyridin-2-yl)-methyl)urea (2,2,2-trifluoro-acetate)], for which the IC50 came out at 3140 nM. Then `O=C(NCC1CCCCC1)N[C@@H](c1ccc(C(F)(F)F)cc1)c1ncccc1C(F)(F)F` [Example 127, (S)-1-(cyclohexyl-methyl)-3-((4-(trifluoro-methyl)-phenyl)(3-(trifluoro-methyl)-pyridin-2-yl)-methyl)urea (2,2,2-trifluoro-acetate)], with 657 nM. Then `COc1cccc([C@@H](C)NC(=O)N[C@@H](c2ccc(C(F)(F)F)cc2)c2ncccc2C(F)(F)F)c1` [Example 128, 1-((R)-1-(3-methoxy-phenyl)ethyl)-3-((S)-(4-(trifluoro-methyl)-phenyl)(3-(trifluoro-methyl)-pyridin-2-yl)-methyl)urea (2,2,2-trifluoro-acetate)], with 4060 nM; and `O=C(N[C@@H](c1ccc(C(F)(F)F)cc1)c1ncccc1C(F)(F)F)N[C@H]1CCc2ccccc21` [Example 129, 1-((S)-2,3-dihydro-1H-inden-1-yl)-3-((S)-(4-(trifluoro-methyl)-phenyl)(3-(trifluoro-methyl)-pyridin-2-yl)-methyl)urea (2,2,2-trifluoro-acetate)], with 2000 nM. Then `COc1ccc([C@@H](C)NC(=O)N[C@@H](c2ccc(C(F)(F)F)cc2)c2ncccc2C(F)(F)F)cc1` [Example 130, 1-((R)-1-(4-methoxy-phenyl)ethyl)-3-((S)-(4-(trifluoro-methyl)-phenyl)(3-(trifluoro-methyl)-pyridin-2-yl)-methyl)urea (2,2,2-trifluoro-acetate)], with 3790 nM; and `CC(C)(C)CC(C)(C)NC(=O)N[C@@H](c1ccc(C(F)(F)F)cc1)c1ncccc1C(F)(F)F` [Example 131, (S)-1-((4-(trifluoro-methyl)-phenyl)(3-(trifluoro-methyl)-pyridin-2-yl)-methyl)-3-(2,4,4-trimethylpentan-2-yl)urea (2,2,2-trifluoro-acetate)], with 666 nM. `O=C(NCCc1c(Cl)cccc1Cl)N[C@@H](c1ccc(C(F)(F)F)cc1)c1ncccc1C(F)(F)F` [Example 132, (S)-1-(2,6-dichlorophen-ethyl)-3-((4-(trifluoro-methyl)-phenyl)(3-(trifluoro-methyl)-pyridin-2-yl)-methyl)urea (2,2,2-trifluoro-acetate)]: the IC50 came out at 673 nM.

A word on the IC50: it is the concentration that gives 50% inhibition.

Source of the values: patent publication US8778941B2, “TRPM8 antagonists and their use in treatments” (AMGEN Inc., priority 2011, dated 2014).
